Numbers after ± are expanded uncertainties.
Experiment: xn = mol fraction of the nth substance listed
Conditions: 101.3 kPa, Liquid; for speed of sound: Frequency=3 MHz, Single path-length method; for mass density: Vibrating tube method

CCOCCO [2-ethoxyethan-1-ol] + CCn1cc[n+](C)c1.O=S(=O)([O-])C(F)(F)F
Conditions	mass density, 298.15 K [kg/m3]	mass density, 303.15 K [kg/m3]	mass density, 308.15 K [kg/m3]	mass density, 313.15 K [kg/m3]	mass density, 318.15 K [kg/m3]	speed of sound, 298.15 K [m/s]	speed of sound, 303.15 K [m/s]	speed of sound, 308.15 K [m/s]	speed of sound, 313.15 K [m/s]	speed of sound, 318.15 K [m/s]
x2 = 0	926 ± 2	921 ± 2	917 ± 2	912 ± 2	907 ± 2	1304 ± 10	1287 ± 10	1270 ± 10	1252 ± 10	1234 ± 10
x2 = 0.067	981 ± 3	976 ± 3	971 ± 3	967 ± 3	962 ± 3	1321 ± 10	1305 ± 10	1289 ± 10	1272 ± 10	1256 ± 10
x2 = 0.133	1029 ± 2	1024 ± 2	1020 ± 3	1015 ± 2	1011 ± 3	1333 ± 10	1318 ± 10	1302 ± 10	1286 ± 10	1271 ± 10
x2 = 0.192	1066 ± 2	1062 ± 2	1058 ± 2	1053 ± 2	1049 ± 2	1344 ± 10	1329 ± 10	1314 ± 10	1299 ± 10	1283 ± 10
x2 = 0.268	1112 ± 2	1107 ± 2	1103 ± 2	1099 ± 2	1094 ± 2	1356 ± 10	1342 ± 10	1328 ± 10	1313 ± 10	1299 ± 10
x2 = 0.35	1157 ± 2	1152 ± 2	1148 ± 2	1144 ± 2	1139 ± 2	1369 ± 10	1355 ± 10	1342 ± 10	1328 ± 10	1315 ± 10
x2 = 0.428	1196 ± 2	1191 ± 2	1187 ± 2	1183 ± 2	1178 ± 2	1380 ± 10	1367 ± 10	1354 ± 10	1341 ± 10	1328 ± 10
x2 = 0.54	1245 ± 2	1241 ± 2	1237 ± 2	1233 ± 2	1228 ± 2	1395 ± 10	1383 ± 10	1370 ± 10	1358 ± 10	1346 ± 10
x2 = 0.609	1272 ± 2	1268 ± 2	1264 ± 2	1260 ± 2	1255 ± 2	1403 ± 10	1391 ± 10	1379 ± 10	1368 ± 10	1356 ± 10
x2 = 0.674	1295 ± 2	1291 ± 2	1287 ± 2	1283 ± 2	1278 ± 2	1411 ± 10	1399 ± 10	1387 ± 10	1376 ± 10	1364 ± 10
x2 = 0.734	1314 ± 2	1310 ± 2	1306 ± 2	1302 ± 2	1297 ± 2	1417 ± 10	1406 ± 10	1394 ± 10	1383 ± 10	1372 ± 10
x2 = 0.799	1332 ± 2	1328 ± 2	1324 ± 2	1320 ± 2	1315 ± 2	1424 ± 10	1412 ± 10	1401 ± 10	1390 ± 10	1379 ± 10
x2 = 0.884	1354 ± 2	1350 ± 2	1346 ± 2	1342 ± 2	1337 ± 2	1431 ± 10	1420 ± 10	1409 ± 10	1398 ± 10	1387 ± 10
x2 = 0.951	1371 ± 2	1367 ± 2	1363 ± 2	1359 ± 2	1354 ± 2	1437 ± 10	1425 ± 10	1414 ± 10	1403 ± 10	1392 ± 10

CCCOCCO [2-propoxyethanol] + CCn1cc[n+](C)c1.O=S(=O)([O-])C(F)(F)F
Conditions	mass density, 298.15 K [kg/m3]	mass density, 303.15 K [kg/m3]	mass density, 308.15 K [kg/m3]	mass density, 313.15 K [kg/m3]	mass density, 318.15 K [kg/m3]	speed of sound, 298.15 K [m/s]	speed of sound, 303.15 K [m/s]	speed of sound, 308.15 K [m/s]	speed of sound, 313.15 K [m/s]	speed of sound, 318.15 K [m/s]
x2 = 0	908 ± 2	903 ± 2	899 ± 2	895 ± 2	890 ± 2	1301 ± 10	1283 ± 10	1266 ± 10	1248 ± 10	1231 ± 10
x2 = 0.051	945 ± 3	940 ± 3	936 ± 3	931 ± 3	927 ± 3	1308 ± 10	1292 ± 10	1275 ± 10	1258 ± 10	1241 ± 10
x2 = 0.104	981 ± 2	976 ± 2	972 ± 2	968 ± 2	963 ± 2	1317 ± 10	1300 ± 10	1284 ± 10	1268 ± 10	1252 ± 10
x2 = 0.199	1042 ± 2	1037 ± 2	1033 ± 2	1029 ± 2	1024 ± 2	1331 ± 10	1316 ± 10	1301 ± 10	1286 ± 10	1271 ± 10
x2 = 0.241	1067 ± 2	1063 ± 2	1059 ± 2	1054 ± 2	1050 ± 2	1338 ± 10	1323 ± 10	1308 ± 10	1294 ± 10	1279 ± 10
x2 = 0.296	1098 ± 2	1094 ± 2	1089 ± 2	1085 ± 2	1081 ± 2	1346 ± 10	1332 ± 10	1318 ± 10	1304 ± 10	1289 ± 10
x2 = 0.416	1161 ± 2	1157 ± 2	1153 ± 2	1149 ± 2	1145 ± 2	1364 ± 10	1351 ± 10	1338 ± 10	1324 ± 10	1311 ± 10
x2 = 0.506	1204 ± 2	1200 ± 2	1196 ± 2	1192 ± 2	1187 ± 2	1377 ± 10	1364 ± 10	1352 ± 10	1339 ± 10	1327 ± 10
x2 = 0.606	1247 ± 2	1243 ± 2	1239 ± 2	1235 ± 2	1231 ± 2	1391 ± 10	1379 ± 10	1367 ± 10	1355 ± 10	1343 ± 10
x2 = 0.698	1284 ± 2	1280 ± 2	1276 ± 2	1272 ± 2	1268 ± 2	1404 ± 10	1392 ± 10	1381 ± 10	1369 ± 10	1357 ± 10
x2 = 0.808	1324 ± 2	1320 ± 2	1316 ± 2	1311 ± 2	1307 ± 2	1419 ± 10	1408 ± 10	1396 ± 10	1385 ± 10	1374 ± 10
x2 = 0.845	1336 ± 2	1332 ± 2	1328 ± 2	1324 ± 2	1320 ± 2	1424 ± 10	1413 ± 10	1402 ± 10	1390 ± 10	1379 ± 10
x2 = 0.898	1353 ± 2	1349 ± 2	1344 ± 2	1340 ± 2	1336 ± 2	1431 ± 10	1420 ± 10	1409 ± 10	1398 ± 10	1386 ± 10
x2 = 0.953	1369 ± 2	1365 ± 2	1361 ± 2	1357 ± 2	1353 ± 2	1438 ± 10	1427 ± 10	1416 ± 10	1405 ± 10	1394 ± 10
